{"source": "paper PMC3968014", "about": "“Design and Synthesis of a Library of Lead-Like 2,4-Bisheterocyclic Substituted Thiophenes as Selective Dyrk/Clk Inhibitors” (PLoS ONE, 2014)", "key": {"[1]": {"target": "T1, Dyrk1A (Homo sapiens, UniProt Q13627)", "T1 construct": "encoding the catalytic domain of human Dyrk1A; thrombin cleavage site (N); made in house; host or cells: Escherichia coli BL21(DE3) with pRARE", "test": "Dyrk1A kinase assay (32P-ATP, Woodtide)", "format": "biochemical", "details": "read-out: percentage of inhibition Dyrk1A"}, "[2]": {"target": "T2, Dyrk1B (Homo sapiens, UniProt Q9Y463)", "T2 construct": "purchased Life Technologies PV4649 (LOT # 877059G)", "T2 sequence (Q9Y463 whole entry)": "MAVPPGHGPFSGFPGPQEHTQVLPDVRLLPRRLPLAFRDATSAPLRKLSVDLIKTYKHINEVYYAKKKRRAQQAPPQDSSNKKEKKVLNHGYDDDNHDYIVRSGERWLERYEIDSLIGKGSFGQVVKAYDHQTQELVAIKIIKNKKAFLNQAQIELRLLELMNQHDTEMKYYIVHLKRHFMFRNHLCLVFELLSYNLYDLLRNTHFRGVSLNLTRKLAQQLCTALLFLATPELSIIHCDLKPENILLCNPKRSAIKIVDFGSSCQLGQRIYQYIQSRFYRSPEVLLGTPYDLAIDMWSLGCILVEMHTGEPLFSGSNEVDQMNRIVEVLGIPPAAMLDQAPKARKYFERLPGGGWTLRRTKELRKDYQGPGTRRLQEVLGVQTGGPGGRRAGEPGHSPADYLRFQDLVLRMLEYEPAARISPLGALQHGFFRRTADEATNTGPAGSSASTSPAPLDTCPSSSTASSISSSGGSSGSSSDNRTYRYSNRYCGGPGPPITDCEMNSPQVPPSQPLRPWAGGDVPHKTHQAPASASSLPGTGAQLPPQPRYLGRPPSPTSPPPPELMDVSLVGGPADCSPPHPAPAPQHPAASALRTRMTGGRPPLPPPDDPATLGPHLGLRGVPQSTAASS", "test": "Dyrk1B kinase assay (32P-ATP, Woodtide)", "format": "biochemical", "details": "at 5 µM; read-out: percentage of inhibition Dyrk1B"}, "[3]": {"target": "T3, Dyrk2 (Homo sapiens, UniProt Q92630)", "T3 construct": "made in house; host or cells: Escherichia coli BL21(DE3) with pRARE; plasmid pGEX-2TK-Dyrk2 (gift from W. Becker, Aachen)", "T3 sequence (Q92630 1-601)": "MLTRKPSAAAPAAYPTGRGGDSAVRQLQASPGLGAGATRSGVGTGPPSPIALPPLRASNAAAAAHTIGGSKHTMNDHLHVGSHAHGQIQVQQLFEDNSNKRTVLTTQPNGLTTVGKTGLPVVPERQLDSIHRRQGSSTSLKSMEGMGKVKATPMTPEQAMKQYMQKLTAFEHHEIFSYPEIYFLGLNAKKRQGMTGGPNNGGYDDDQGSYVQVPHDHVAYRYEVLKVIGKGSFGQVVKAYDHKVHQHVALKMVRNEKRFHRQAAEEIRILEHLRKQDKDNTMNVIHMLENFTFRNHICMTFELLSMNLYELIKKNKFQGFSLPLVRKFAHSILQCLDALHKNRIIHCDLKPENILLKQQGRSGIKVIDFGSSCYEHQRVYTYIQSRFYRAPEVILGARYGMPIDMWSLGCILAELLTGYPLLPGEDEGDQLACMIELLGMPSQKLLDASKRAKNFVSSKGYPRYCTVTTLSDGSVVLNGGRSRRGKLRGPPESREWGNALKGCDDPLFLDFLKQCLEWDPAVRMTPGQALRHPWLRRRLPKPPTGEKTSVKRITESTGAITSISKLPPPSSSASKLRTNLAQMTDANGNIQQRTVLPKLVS", "test": "Dyrk2 kinase assay (32P-ATP, Woodtide)", "format": "biochemical", "details": "for inhibition at 5 µM: read-out: percentage of inhibition Dyrk2"}, "[4]": {"target": "Clk1 (Homo sapiens, UniProt P49759)", "sequence (P49759 whole entry)": "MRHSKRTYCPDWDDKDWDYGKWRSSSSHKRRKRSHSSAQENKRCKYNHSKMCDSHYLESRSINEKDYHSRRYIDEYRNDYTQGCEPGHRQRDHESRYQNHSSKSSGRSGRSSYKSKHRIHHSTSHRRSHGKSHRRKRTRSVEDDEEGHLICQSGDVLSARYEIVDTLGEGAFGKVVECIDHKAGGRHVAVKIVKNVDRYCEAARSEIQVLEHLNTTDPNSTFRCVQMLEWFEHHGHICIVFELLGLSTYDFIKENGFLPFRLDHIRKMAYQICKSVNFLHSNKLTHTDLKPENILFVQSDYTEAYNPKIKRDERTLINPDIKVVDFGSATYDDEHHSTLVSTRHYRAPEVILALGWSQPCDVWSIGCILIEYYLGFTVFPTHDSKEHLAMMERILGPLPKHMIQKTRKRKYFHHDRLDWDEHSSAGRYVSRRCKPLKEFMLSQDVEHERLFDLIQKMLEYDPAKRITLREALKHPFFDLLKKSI", "test": "Clk1 kinase assay (RS repeat peptide)", "format": "biochemical", "details": "read-out: % inhibition Clk1"}, "[5]": {"test_system": "V79 hamster lung fibroblast cells", "test": "ViaLight Toxicity Assay", "format": "cell-based", "details": "48 hours", "protocol": "V79 hamster lung fibroblast cells were plated at a density of 45,000 cells per well in a white 96 well plate and allowed to adhere and grow for 24 hours. The compounds were then applied as dilutions in cell culture medium (DMEM with 10% FCS and penicillin/streptomycin mix) at a final concentration of 5, 10, and 20 µM, respectively. The plate was further incubated for 48 hours at 37°C in a humidified atmosphere containing 5% CO2. The ATP level was detected with a LONZA ViaLight™ Plus Kit according to protocol 1 of the vendor's instructions. Luminescence was measured in a POLARstar plate reader (BMG Labtech, Offenburg, Germany). The background luminescence was obtained from equally treated, cell-free wells containing serum, and subtracted from all values. Inhibition values obtained for different compound concentrations were compared using the two-sided Student's t-test; levels of significance thus obtained are indicated by asterisks."}, "[6]": {"test": "Metabolic Stability Assay", "details": "male, Sprague-Dawley, rat, microsomes"}, "[7]": {"target": "T4, CK2α (Homo sapiens, UniProt P68400)", "T4 construct": "purchased Life Technologies (Invitrogen SelectScreen); Dyrk1A, Dyrk2 and CK2α in-house or gifts", "T4 sequence (P68400 whole entry)": "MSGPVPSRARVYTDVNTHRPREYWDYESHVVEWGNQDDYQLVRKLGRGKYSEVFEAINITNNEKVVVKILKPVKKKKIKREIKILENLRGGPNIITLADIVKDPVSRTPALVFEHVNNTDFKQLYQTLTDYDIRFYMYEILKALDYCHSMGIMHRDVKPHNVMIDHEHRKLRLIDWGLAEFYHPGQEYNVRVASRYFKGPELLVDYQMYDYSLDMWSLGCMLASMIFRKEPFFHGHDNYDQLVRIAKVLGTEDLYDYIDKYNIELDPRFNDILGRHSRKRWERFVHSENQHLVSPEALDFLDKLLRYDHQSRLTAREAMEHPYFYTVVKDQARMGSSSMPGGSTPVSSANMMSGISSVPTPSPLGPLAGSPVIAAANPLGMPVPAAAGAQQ", "test": "CK2α kinase assay (counter screen)", "format": "biochemical", "details": "read-out: percentage of inhibition CK2α", "protocol": "Dyrk1A, Dyrk1B, Dyrk2, CK2α and Clk1 kinase reactions were performed in a reaction buffer containing 50 mM Tris/HCl, pH 7.4, 0.1 mM EGTA, 0.5 mM DTT, 10 mM MgCl2, 100 µM ATP and 0.33 µM [γ-^32ATP] as well as the appropriate substrate peptides, which were 100 µM Woodtide for the Dyrk isoforms ([…]-NH2), 60 µM CK2 substrate peptide ([…]-NH2, from Millipore) for CK2α or RS repeat peptide ([…]) for Clk1. The CK2α protein was a kind gift of M. Montenarh (Homburg). The kinase reactions were performed at 30°C for 15 min and terminated by spotting 5 µL of the reaction mixture onto a P81 phosphocellulose membrane (Whatman). The membrane was washed four times with 0.3% phosphoric acid and one time with acetone and dried. The dry membrane was exposed in a cassette to a Phosphor Screen Imaging Plate (FujiFilm) and the signals detected by scanning of the imaging plate in a Fuji FLA-3000 PhosphoImager. The spots were quantified using AIDA software (Raytest, Version 3.52) to determine the activities of the kinases in the assay reactions. […] IC50 values were calculated by fitting the data with Origin Pro 8.6 (OriginLabs). The calculated IC50 values are representative of at least two independent determinations."}, "[8]": {"test_system": "U2OS osteosarcoma cells", "test": "Caspase-3 Assay (Caspase-Glo 3/7)", "format": "cell-based", "details": "starved U2OS cells, 48 hours, vs DMSO control", "protocol": "U2OS osteosarcoma cells were seeded in a 96 well flat bottom plate (15*10^3 cells/well). […] The induction of caspase-3/7 activity was measured using the Promega Caspase-Glo 3/7 assay system (Promega, LOT 0000054568). The resulting luciferase reaction signals that are proportional to the caspase induction were measured in a POLARstar plate reader (BMG Labtech, Offenburg, Germany). […] Values obtained for different compound concentrations were compared using the two-sided Student's t test; levels of significance thus obtained are indicated by asterisks."}, "[9]": {"test": "Determination of logP, pka and logS (Sirius T3)", "format": "physicochemical", "details": "Experimental", "protocol": "The physicochemical parameters were determined on a Sirius T3 machine (Sirius Analytical machines, East Sussex, UK) by automated titration according to the manufacturer's instructions."}}, "note": "Where two headings read alike, the source gives them in different places.", "data": [{"smiles": "COc1ccc2c(c1)[nH]c1c(C)nccc12", "note": "[Harmine, harmine, reference compound]", "values": [{"measurement": "inhibition at 5 µM", "setting": "[1]", "value": 98, "unit": "%"}, {"measurement": "inhibition at 5 µM", "setting": "[2]", "value": 98, "unit": "%"}, {"measurement": "IC50", "setting": "[3]; IC50 Dyrk2, 100 µM ATP", "value": 3, "unit": "µM"}, {"measurement": "inhibition at 5 µM", "setting": "[3]", "value": 68, "unit": "%"}, {"measurement": "inhibition at 5 µM", "setting": "[4]", "value": 97, "unit": "%"}, {"measurement": "influence on cell viability (cellular ATP levels)", "setting": "[5]; V79 cells, 5 µM", "value": "slightly toxic"}, {"measurement": "CLhep predicted at 0.5 µM", "setting": "[6]", "value": 53, "unit": "mL/min/kg"}, {"measurement": "half-life at 0.5 µM", "setting": "[6]", "value": 18, "unit": "min"}]}, {"smiles": "c1cncc(-c2cc(-c3ccncc3)cs2)c1", "note": "[Compound 11]", "values": [{"measurement": "inhibition at 5 µM", "setting": "[1]; at 5 µM", "value": 10, "unit": "%"}, {"measurement": "inhibition at 5 µM", "setting": "[2]", "value": 10, "unit": "%"}, {"measurement": "inhibition at 5 µM", "setting": "[3]; at 5 µM", "value": 20, "unit": "%"}, {"measurement": "inhibition at 5 µM", "setting": "[7]", "value": 0, "unit": "%"}, {"measurement": "caspase-3/7 activity", "setting": "[8]", "value": "only a slight increase"}, {"measurement": "influence on cell growth (cellular ATP levels)", "setting": "[5]; V79 cells, 5, 10 and 20 µM", "value": "no influence"}]}, {"smiles": "c1cncc(-c2csc(-c3cccnc3)c2)c1", "note": "[Compound 4]", "values": [{"measurement": "inhibition at 5 µM", "setting": "[7]", "value": 18.5, "unit": "%"}, {"measurement": "logP", "setting": "[9]", "value": 2.47}, {"measurement": "solubility", "setting": "[9]; read-out: Solubility", "value": 500, "unit": "µg/mL"}, {"measurement": "solubility", "setting": "[9]; read-out: logS (converted)", "value": 2140, "unit": "µM"}, {"measurement": "pKa", "setting": "[9]; read-out: pka1", "value": 3.48}, {"measurement": "pKa", "setting": "[9]; read-out: pka2", "value": 4.8}]}]}
